Columns and labels:
P-gp (MDR1) = assay: MDCK-MDR1 assay (permeability, efflux ratio); format: in vitro ADME; details: dog, Papp BA/Papp AB
Protocol: The permeability of the test compounds was assessed in MDCK-MDR1 cells that were cultured to confluency (4-6 days) in a 96 transwell plate. Test compounds were diluted with the transport buffer (HBSS+1% BSA) to a concentration of 0.5 μM and applied to the apical or basolateral side of the cell monolayer. Permeation of the test compounds from A to B direction or B to A direction was determined in triplicate over a 60-minute incubation time at 37° C. and 5% CO2 with a relative humidity of 95%. Test compounds were quantified by LC-MS/MS analysis based on the peaks area ratios of analyte/IS in both the receiver and donor wells of the transwell plate.
The apparent permeability coefficient Papp (cm/s) was calculated using the equation: […]
Where dCr/dt is the cumulative concentration of compound in the receiver chamber as a function of time (μM/s); Vr is the solution volume in the receiver chamber (0.05 mL on the apical side; 0.25 mL on the basolateral side); A is the surface area for the transport, i.e. 0.0804 cm^2 for the area of the monolayer; CO is the initial concentration in the donor chamber (μM).
Compounds are classified Pgp substrates when efflux ratio (Papp BA/Papp AB) is ≥2.

[1] = Clearance in microsomes, human; format: in vitro ADME; details: 1 microM, read-out: CLint, Human (L/h/kg) ± SD (converted)
Source text: (§1) Deuterated compounds were compared to their non-deuterated parent counterparts to determine the impact of deuteration on clearance results

[2] = Clearance in microsomes, rat; format: in vitro ADME; details: 1 microM, read-out: CLint, Rat (L/h/kg) ± SD (converted)
Source text: as §1

[3] = Clearance in microsomes, cyno; format: in vitro ADME; details: cynomolgus monkey, 1 microM, read-out: CLint, Cyno (L/h/kg) ± SD (converted)
Source text: as §1

[4] = Clearance in hepatocytes, human; format: in vitro ADME; details: read-out: CLint, Human (L/h/kg) ± SD (converted)
Source text: as §1

[5] = Clearance in hepatocytes, rat; format: in vitro ADME; details: read-out: CLint, Rat (L/h/kg) ± SD (converted)
Source text: as §1

[6] = Clearance in hepatocytes, dog; format: in vitro ADME; details: read-out: CLint, Dog (L/h/kg) ± SD (converted)
Source text: as §1

BACE1 = BACE1 (Homo sapiens, UniProt P56817); assay: BACE1 efficacy assay (FRET-based); format: biochemical; design: purchased Life Technologies P2985; details: 10 μM test compound
Protocol: The efficacy assay was performed as a FRET-based assay using a commercially available BACE1 kit (Life Technologies, P2985). 2 μl test compound at 10 μM (final concentration) and 15 μl BACE1 enzyme from the kit (final concentration 3 nM) were preincubated for 15 minutes at room temperature before addition of 15 μl of substrate from the kit (250 nM final concentration) and incubated for additional 90 minutes at room temperature. The assay plate was subsequently read in a Pherastar (Ex540/Em590). The enzyme activity observed in presence of test compound were normalized to the enzyme activity observed in presence of buffer and 10 μM (final concentration) of the high affinity BACE1 reference inhibitor (S)-6-[3-Chloro-5-(5-prop-1-ynyl-pyridin-3-yl)-thiophen-2-yl]-2-imino-3,6-dimethyl-tetrahydropyrimidin-4-one, respectively. The efficacy of the test compounds was evaluated at 10 μM (final concentration) and defined as the percent inhibition of the enzyme activity using the equation % inhibition=100%−normalized enzyme activity in percent.

Chain of BACE1 (P56817 46-501): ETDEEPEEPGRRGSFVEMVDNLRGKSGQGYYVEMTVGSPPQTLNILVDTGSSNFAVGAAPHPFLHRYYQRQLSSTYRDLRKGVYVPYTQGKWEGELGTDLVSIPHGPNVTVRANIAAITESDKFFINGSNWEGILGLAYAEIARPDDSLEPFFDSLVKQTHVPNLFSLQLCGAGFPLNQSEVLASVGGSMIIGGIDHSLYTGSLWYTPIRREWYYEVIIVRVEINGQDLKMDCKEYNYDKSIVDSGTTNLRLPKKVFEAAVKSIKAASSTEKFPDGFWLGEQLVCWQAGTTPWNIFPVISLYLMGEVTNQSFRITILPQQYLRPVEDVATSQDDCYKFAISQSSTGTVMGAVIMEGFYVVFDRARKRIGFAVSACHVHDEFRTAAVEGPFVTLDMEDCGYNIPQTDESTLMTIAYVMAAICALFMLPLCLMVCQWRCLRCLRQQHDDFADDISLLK

[2H]C([2H])([2H])Oc1cnc(C(=O)Nc2ccc(F)c([C@]3(C)CC[C@@](F)(CF)C(N)=N3)c2)cn1 [Example 1, N-(3-((2S,5S)-6-amino-5-fluoro-5-(fluoromethyl)-2-methyl-2,3,4,5-tetrahydropyridin-2-yl)-4-fluorophenyl)-5-(methoxy-d3)pyrazine-2-carboxamide]
efflux ratio at 60 min, 0.5 μM (P-gp (MDR1)): 1.39 | CLint scaled at 1 µM [1]: 0.2 L/h/kg | CLint scaled at 1 µM [2]: 0.9 L/h/kg | CLint scaled at 1 µM [3]: 10 L/h/kg | CLint scaled at 0.1 µM ([4]; 0.1 microM): < 0.1 L/h/kg | CLint scaled at 0.3 µM ([4]; 0.3 microM): < 0.1 L/h/kg | CLint scaled at 1 µM ([4]; 1 microM): < 0.1 L/h/kg | CLint scaled at 0.1 µM ([5]; 0.1 microM): 1.5 L/h/kg | CLint scaled at 0.3 µM ([5]; 0.3 microM): 1.2 L/h/kg | CLint scaled at 1 µM ([5]; 1 microM): < 0.4 L/h/kg | CLint scaled at 0.1 µM ([6]; 0.1 microM): 34 L/h/kg | CLint scaled at 0.3 µM ([6]; 0.3 microM): 25 L/h/kg | CLint scaled at 1 µM ([6]; 1 microM): 11 L/h/kg | inhibition at 10 µM (BACE1): 100%

From US20180186769A1, “6-AMINO-5-FLUORO-5-(FLUOROMETHYL)-2,3,4,5-TETRAHYDROPYRIDIN-2-YL-PHENYL-5-(METHOXY-D3)-PYRAZINE-2-CARBOXAMIDES AND FLUORINATED DERIVATIVES THEREOF AS BACE1 INHIBITORS” (H. Lundbeck A/S, priority 2016, published 2018)
